{
  "source": "patent US20220193072A1",
  "about": "“METHODS OF TREATING BREAST CANCER WITH TETRAHYDRONAPHTHALENE DERIVATIVES AS ESTROGEN RECEPTOR DEGRADER” (Arvinas Operations, Inc., priority 2020, published 2022)",
  "key": {"[1]": {"system": "ER-target genes", "test": "Expression of ER-target genes (GREB1, PR)", "assay_type": "cell-based", "conditions": "MCF7 and T47D"}, "[2]": {"system": "T47D ESR1 D538G cells", "test": "Live-cell imaging growth studies and EC50 for growth inhibition, T47D ESR1 D538G", "assay_type": "cell-based", "conditions": "Homo sapiens; T47D ESR1 D537G (so in the source); read-out: Approximate Half-maximal Effective Concentration (EC50) for growth inhibition", "procedure": "(§1) MCF7, T47D, T47D ESR1 Y537S or T47D ESR1 D538G cells were seeded at 2×10^5 density per well in 6-well tissue culture-treated plates in DMEM/F12/10% FBS (2 mL total volume). […] The plate was then placed in the Incucyte® S3 Live-Cell Analysis System and images were acquired every 4 hours for a total of 5 days (120 hours). Data were analyzed using the Incucyte® Software v2020C which quantified cell surface area coverage as confluence values. Relative growth was calculated for all timepoints for all growth conditions relative to the confluence value observed for the control at 120 hours. Graphing and statistical analyses were performed using Graphpad Prism (GraphPad Software)."}, "[3]": {"system": "tamoxifen-resistant MCF7 xenografts", "test": "Tamoxifen-resistant MCF7 orthotopic xenograft tumor growth inhibition", "assay_type": "in vivo, Nu/Nu mice", "procedure": "Species: Ovariectomized Nu/Nu female mice. Animal handling: Axial mammary fat pad implantation of tamoxifen-resistant tumor fragment (from E45 passage. SC per mouse. Tamoxifen pellet (5 mg, 60-day release) was implanted under the same anesthesia as tumor fragment (pellet—dorsal; tumor—ventral).\nDosing: Oral (gavage), once a day for 28 days (QD×28)\nSampling: Tumors were measured twice weekly. Terminal sacrifice was ˜18 hr after last dose; tumors were harvested, divided, and flash frozen. ERα levels were determined by immunoblotting (see Appendix 1 for details)."}, "[4]": {"test": "28-day oral toxicology study in rats", "assay_type": "in vivo", "conditions": "oral once daily 28 days"}, "[5]": {"system": "MCF7 xenograft", "test": "MCF7 orthotopic xenograft, combination with mTOR inhibitor everolimus", "assay_type": "in vivo, NOD/SCID mice", "procedure": "NOD/SCID female mice (Charles River, 6-7 weeks old upon arrival) were implanted with 17b-estradiol 0.72 mg 90-day pellets. The next day, each mouse was implanted with 5×10^6 MCF7 cells/[…] per in the axial mammary fat pad. Compound administration was initiated once the tumors reached 175-200 mm^3. Diet was supplemented with peanut butter to help maintain body weights. […] (FIG. 28 and Table 13).\nError bars represent standard deviation.\nThe ratio of Tween 80 to PEG-400 is 0.02 g Tween 80 to 1 ml PEG-400. PEG-400 is added to a pre-aliquoted volume of Tween 80. • For everolimus: 10% DMSO, 90% (2% Tween 80, PEG 400) (DMSO/PEG/Tween) Sampling: tumors were measured twice weekly. Terminal sacrifice was ˜18 hr after last dose. Tumor volume calculation: Tumor Volume=(width×width×length)/2, where all measurements are in mm and the tumor volume is in mm^3. Tumor Growth Inhibition (TGI) calculation: TGI (%)"}, "[6]": {"system": "MCF7 xenograft", "test": "MCF7 orthotopic xenograft, combination with CDK4/6 inhibitor", "assay_type": "in vivo, NOD/SCID mice"}, "[7]": {"system": "ER-dependent cell lines", "test": "Cell proliferation of ER-dependent cell lines", "assay_type": "cell-based"}, "[8]": {"test": "Phase I dose escalation safety", "assay_type": "in vivo, human", "conditions": "30 mg/day cohort, n=3", "from_the_text": "A Phase I Clinical Trial with Compound (I-c) was undertaken. A traditional 3+3 dose escalation design was implemented. […] Dose increases were dependent on toxicities.\nThe key entry criteria for this trial were: ER+/HER2− advanced breast cancer; at least two prior endocrine therapies in any setting, and a CDK4/6 inhibitor; and up to three prior cytotoxic chemotherapy regimens."}, "[9]": {"system": "cell lines expressing ESR1 variants Y537S and D538G", "test": "Growth of cell lines expressing ESR1 variants", "assay_type": "cell-based"}, "[10]": {"system": "estrogen receptor", "test": "In vitro ER degradation in ER-positive breast cancer cell lines (DC50)", "conditions": "wild-type and variant ERα expressing cell lines"}, "[11]": {"system": "T47D cells", "test": "Live-cell imaging growth studies and EC50 for growth inhibition, T47D", "assay_type": "cell-based", "conditions": "Homo sapiens, read-out: Approximate Half-maximal Effective Concentration (EC50) for growth inhibition", "procedure": "as §1"}, "[12]": {"conditions": "Compound (I-c) 30 mg/kg oral QD x 28"}, "[13]": {"conditions": "Compound (I-c) 30 mg/kg oral QD x 26"}},
  "note": "pEC50: −log10 of the molar value.",
  "data": [
    {"smiles": "O=C1CC[C@H](N2Cc3cc(N4CCN(CC5CCN(c6ccc([C@@H]7c8ccc(O)cc8CC[C@@H]7c7ccccc7)cc6)CC5)CC4)ccc3C2=O)C(=O)N1", "note": "[Compound (I-c), (3S)-3-[5-[4-[[1-[4-[(1R,2S)-6-hydroxy-2-phenyl-tetralin-1-yl]phenyl]-4-piperidyl]methyl]piperazin-1-yl]-1-oxo-isoindolin-2-yl]piperidine-2,6-dione]", "values": [
      {"measurement": "expression of classically-regulated ER-target genes", "setting": "[1]", "value": "decreases"},
      {"measurement": "pEC50", "setting": "[2]", "value": 8.00},
      {"measurement": "Day 28 Tumor volume (mean ± SD)", "setting": "[3]; [12]", "value": "361 ± 181", "unit": "mm^3"},
      {"measurement": "TGI (% vehicle)", "setting": "[3]; [12]", "value": 65, "unit": "% vehicle"},
      {"measurement": "tumor growth inhibition (TGI)", "setting": "[3]; tamoxifen-resistant MCF7, 30 mg/kg/day oral, 28 days", "value": 65, "unit": "%"},
      {"measurement": "clinical signs of toxicity", "setting": "[4]; doses up to 100 mg/kg/day", "value": "no clinical signs of toxicity"},
      {"measurement": "effects on overall animal health or well-being", "setting": "[4]; up to 100 mg/kg/day", "value": "no effects on the overall animal health or well-being"},
      {"measurement": "Day 26 Tumor Volume (mean ± SD)", "setting": "[5]; [13]", "value": "169 ± 77", "unit": "mm^3"},
      {"measurement": "TGI (% vehicle)", "setting": "[5]; [13]", "value": 102, "unit": "% vehicle"},
      {"measurement": "tumor growth inhibition (TGI)", "setting": "[5]; single agent 30 mg/kg oral once daily, 26 days", "value": 102, "unit": "%"},
      {"measurement": "Day 28 Tumor volume (mean ± SD)", "setting": "[6]; [12]", "value": "170 ± 62", "unit": "mm^3"},
      {"measurement": "TGI (% vehicle)", "setting": "[6]; [12]", "value": 105, "unit": "% vehicle"},
      {"measurement": "tumor growth inhibition (TGI)", "setting": "[6]; single agent 30 mg/kg oral QD x 28", "value": 105, "unit": "%"},
      {"measurement": "cell proliferation of ER-dependent cell lines", "setting": "[7]", "value": "inhibits"},
      {"measurement": "dose limiting toxicity", "setting": "[8]", "value": "no dose limiting toxicity"},
      {"measurement": "treatment related adverse events", "setting": "[8]", "value": "no treatment related adverse events"},
      {"measurement": "growth of cell lines expressing ESR1 variants Y537S and D538G", "setting": "[9]", "value": "inhibits growth"},
      {"measurement": "ERα degradation potency", "setting": "[10]", "value": "single-digit nanomolar"},
      {"measurement": "pEC50", "setting": "[11]", "value": 8.00}
    ]}
  ]
}
